Laboratory results taken from PubChem BioAssay (NCI).
“And” between values parts separate entries of the source, which are not always exact repeats. Equal entries are not always repeated.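 1) Cells in 96-well plates. 2) Compound, 48 h, 5 concentrations. 3) Linear interpolation between surrounding doses. 4) Unreached endpoint = highest concentration. Here, GI50 denotes the concentration required for 50% inhibition of growth. Definition used: TGI = concentration required for complete inhibition of growth.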

Tests used:
Experiment in all cases: inhibition of tumour cell growth, NCI panel, 48 h
RXF 393 renal = tested on: RXF 393 renal
A498 renal = tested on: A498 renal
NCI-H23 lung = tested on: NCI-H23 lung
NCI-H226 lung = tested on: NCI-H226 lung
IGROV1 ovarian = tested on: IGROV1 ovarian
MOLT-4 leukemia = tested on: MOLT-4 leukemia
MCF7 breast = tested on: MCF7 breast
DU-145 prostate = tested on: DU-145 prostate
NCI/ADR-RES ovarian = tested on: NCI/ADR-RES ovarian
A549 NSCLC = tested on: A549 NSCLC

Row | SMILES | GI50 (RXF 393 renal) | TGI (RXF 393 renal) | GI50 (A498 renal) | TGI (A498 renal) | GI50 (NCI-H23 lung) | TGI (NCI-H23 lung) | GI50 (NCI-H226 lung) | TGI (NCI-H226 lung) | GI50 (IGROV1 ovarian) | TGI (IGROV1 ovarian) | GI50 (MOLT-4 leukemia) | TGI (MOLT-4 leukemia) | GI50 (MCF7 breast) | TGI (MCF7 breast) | GI50 (DU-145 prostate) | TGI (DU-145 prostate) | GI50 (NCI/ADR-RES ovarian) | TGI (NCI/ADR-RES ovarian) | GI50 (A549 NSCLC) | TGI (A549 NSCLC)
1 | C=C(C)[C@@H]1CC[C@]2(C(N)=O)CC[C@]3(C)[C@H](CC[C@@H]4[C@@]5(C)C/C(=C/c6cccnc6)[C@H](O)C(C)(C)[C@@H]5CC[C@]43C)[C@@H]12 | 3.61 µM | 52.5 µM | 10.4 µM | > 100 µM | 4.96 µM | > 100 µM | 4.98 µM | > 100 µM | 3.85 µM | > 100 µM | 2.93 µM | > 100 µM | 2.68 µM | > 100 µM | 7.08 µM | > 100 µM | 3.74 µM | > 100 µM | 3.37 µM | > 100 µM
2 | Cn1c(=N)n[n+]([O-])c2ccccc21 |  | 36.4 µM | 3.07 µM and 9.29 µM | 9.7 µM and 23.2 µM | 2.44 µM | 4.4 µM and 6.39 µM |  | 24.8 µM and 32.4 µM |  | 10.7 µM and 11.6 µM |  | 5.57 µM and 5.16 µM |  | 5.32 µM |  | 4.11 µM and 4.12 µM | 4.44 µM and 9.2 µM | > 100 µM and 42 µM |  | 23.1 µM and 29.8 µM
3 | CCN1CCN(c2ccc(Nc3ncc4ccc5ncn(C(C)C)c5c4n3)nc2)CC1 | 0.0765 µM | 0.248 µM | < 0.0337 µM | 0.241 µM | 0.211 µM | 0.85 µM | 0.148 µM | 2.67 µM | 0.0347 µM | 1.6 µM | 0.0416 µM | 1.91 µM | < 0.0109 µM | 0.848 µM | 0.126 µM | 4.3 µM | 0.292 µM | 13.9 µM | 0.0838 µM | 10.4 µM
4 | Cc1nn(C)c2cc(N(C)c3ccnc(Nc4cccc(S(N)(=O)=O)c4)n3)ccc12 | 5.98 µM | > 19.2 µM | 5.27 µM | 17.5 µM | 6.6 µM | > 25 µM | 5.16 µM | > 21.3 µM | 5.98 µM | > 18.9 µM | 6.62 µM | > 23.8 µM | 7.11 µM | > 25 µM | 7.18 µM | > 25 µM | 7.85 µM | > 25 µM | 8.55 µM | > 25 µM
5 | O=S(=O)(Nc1ccccn1)c1ccc(N=Nc2ccc(O)c3ncccc23)cc1 | 1.24 µM | 11.9 µM | 1.77 µM | 5.73 µM | 2.34 µM | 16 µM | 2.96 µM | 10.8 µM | 1.35 µM | 16.5 µM | 1.37 µM | > 23.9 µM | 1.05 µM | 8.4 µM | 3.22 µM | 26.7 µM | 1.02 µM | 12.8 µM | 1.65 µM | 14 µM
6 | C[C@@H]1OCC2(CCN(c3cnc(Sc4ccnc(N)c4Cl)c(N)n3)CC2)[C@@H]1N | 3.46 µM | > 67.6 µM | 0.128 µM | 4.6 µM | 1.34 µM | > 100 µM |  | > 100 µM | 0.801 µM | > 100 µM | > 90.9 µM | > 100 µM | > 100 µM | > 100 µM | > 67.8 µM | > 100 µM | > 100 µM | > 100 µM | > 100 µM | > 100 µM
